Reference: US9738677B2, “Amphotericin B derivative with reduced toxicity” (priority 2014, dated 2017)
Values after ≈ are worked out from the molar mass of the structure shown.

Legend:
[1] = ITC titration with sterol-free POPC LUVs; format: binding; conditions: no sterol LUVs, 600 μM compound
Procedure: Isothermal Titration calorimetry (ITC)
In an optimized isothermal titration calorimetry (ITC)-based assay, an aqueous solution of AmB was titrated with a suspension of large unilamellar vesicles (LUVs) comprised of only 1-palmitoyl-2-oleoyl-sn-glycero-3-phosphocholine (POPC), and the net exotherm was recorded. The titration was repeated using POPC LUVs containing 10% ergosterol. […] The titration was repeated using C2′epiAmB. […] The ITC assay was also conducted with cholesterol in place of ergosterol.
Experiments were performed using a NanoITC isothermal titration calorimeter (TA Instruments, Wilmington, Del.). Solutions of the compounds to be tested were prepared by diluting a 60.0 mM stock solution of the compound in DMSO to 600 μM with K buffer (5.0 mM HEPES/KHEPES, pH=7.4). The final DMSO concentration in the solution was 1% v/v. Large unilamellar vesicles comprised of only 1-palmitoyl-2-oleoyl-sn-glycero-3-phosphocholine (POPC LUVs) were prepared and phosphorus and ergosterol content was quantified as described below. […]
NanoAnalyze software (TA Instruments) was used for baseline determination and integration of the injection heats, and Microsoft Excel was used for subtraction of dilution heats and the calculation of overall heat evolved. […] By this method, the overall heat evolved during the experiment was calculated using the following formula: […]

C. albicans = assay: Broth microdilution MIC assay; format: cell-based; conditions: Candida albicans, 24 hours, 37° C., no visible growth
Procedure: Exemplary methods for antifungal activity assays are as follows:
C. albicans was cultured in a similar manner to S. cerevisiae except both liquid and solid cultures were incubated at 37° C.
The protocol for the broth microdilution assay was adapted from the Clinical and Laboratory Standards Institute document M27-A2. Clinical and Laboratory Standards Institute. Reference Method for Broth Dilution Antifungal Susceptibility Testing, M27-A2, Approved Standard 2nd Ed. Vol. 22, Number 15, 2002. 50 mL of YPD media was inoculated and incubated overnight at either 30° C. (S. cerevisiae) or 37° C. (C. albicans) in a shaker incubator. The cell suspension was then diluted with YPD to an OD600 of 0.10 (˜5×10^5 cfu/mL) as measured by a Shimadzu (Kyoto, Japan) PharmaSpec UV-1700 UV/Vis spectrophotometer. The solution was diluted 10-fold with YPD, and 195 μL aliquots of the dilute cell suspension were added to sterile Falcon (Franklin Lakes, N.J.) Microtest 96-well plates in triplicate. Compounds were prepared either as […] (AmB, C2′deOAmB) or 2 mM (AmdeB) stock solutions in DMSO and serially diluted to the following concentrations with DMSO: 1600, 1200, 800, 400, 320, 240, 200, 160, 120, 80, 40, 20, 10 and 5 μM. 5 μL aliquots of each solution were added to the 96-well plate in triplicate, with each column representing a different concentration of the test compound. […]

C[C@@H]1[C@H](O)[C@@H](C)/C=C/C=C/C=C/C=C/C=C/C=C/C=C/[C@H](O[C@@H]2O[C@H](C)[C@@H](O)[C@H](N)[C@H]2O)CC2O[C@](O)(C[C@@H](O)C[C@@H](O)[C@H](O)CC[C@@H](O)C[C@@H](O)CC(=O)O[C@H]1C)C[C@H](O)[C@H]2C(=O)O [C2′epiAmB]
Total exotherm [1]: -6.70 ± 0.11 µcal | MIC (C. albicans): 2 µM (≈ 1.85 µg/mL)
